Marks after values point to notes of the source that are not given here.
What was measured:
S. aureus Newbould 305 = test: Mouse model of S. aureus-induced mastitis, prophylactic pre-treatment; assay type: in vivo; details: for reduction of the mean bacterial CFU in tissues compared to untreated control: lactating CD-1 mice, 10 h infection
Experimental: The well-characterized mouse model of S. aureus-induced mastitis (see Brouillette et al., 2005 for review) was used to evaluate the capacity of c-di-GMP to act as a prophylactic agent. S. aureus is a Gram-positive bacterial pathogen. The protocol used here is similar to that described in a previous study (Brouillette et al., 2005), except that the c-di-GMP molecule was administered before infection of mammary glands, instead of after, in order to evaluate its prophylactic capacity. […] For inoculation, 100 cfu of S. aureus Newbould 305 (ATCC 29740) were injected in each gland and the colonization allowed for 10 h. Raw bacterial cfu counts obtained after plating serial logarithmic dilutions of mammary gland homogenates were transformed in base-10 logarithm values. The experiment was repeated and data combined for a total of 9 mice (18 glands) per group. Since values passed the normality test, bacterial counts were analyzed for statistical significance using the One-way analysis of variance test combined with the Tukey post test (GraphPad Instat, version 3.06). The institutional ethics committee on animal experimentation of the Faculté des sciences of Université de Sherbrooke approved these experiments and were carried out following the guidelines of the Canadian Council on Animal Care.

[1] = assay type: in vitro ADME, human
Experimental: Commercially supplied pooled human serum (100 uL) (Cambrex Bio Science Walkersville, Inc.) was diluted in ion-exchanged water. An aliquot of the resulting human serum solution was subjected to HPLC analysis (conditions: COSMOSIL 5C18-AR-II column (4.6×200 mm); buffer A; buffer B, 80% acetonitrile in water; gradient, 0-10 min A 100%, 10-60 min A:B=100:0 to A:B=40:60 in 50 min; detection 254 nm, flow rate, 1.0 mL/min, temperature 40° C.). Separately, a 100 uM of c-di-GMP solution in human serum was prepared by adding 100 uL of a 500 uM c-di-GMP aqueous solution to a mixture of 390 uL of human serum and 10 uL of 40 mM 2-methylbenzimidazole (an internal standard for estimating the extent of decomposition of c-di-GMP) in methanol. An aliquot of the test solution was diluted immediately after the preparation solution and then heated at 100° C. for 5 min to quench activity of enzymes. The resulting test sample was subjected to HPLC analysis after 24 h treatment. Peaks that appeared in both analyses were compared. Results are based on 3 independent experiments.

lung leukocytes = test: Lung leukocyte accumulation in Klebsiella-infected mice (lung digest, flow cytometry); assay type: in vivo, Balb/c mice
[2] = tested on: cytokine mRNA in whole lung; test: Cytokine mRNA levels in whole lung homogenates (quantitative PCR); assay type: in vivo, Balb/c mice
[3] = tested on: C. albicans strain SC5314; test: Systemic C. albicans infection in mice (proposed); assay type: in vivo, Candida albicans; details: A/J and C57BL/6J mice, 3×10^5 blastospores i.v.
Experimental: To show the efficacy of c-di-GMP in inhibiting C. albicans infection, 8- to 12-week-old A/J and C57BL/6J mice are infected with C. albicans strain SC5314. The blastospores are washed twice in phosphate-buffered saline (PBS) and resuspended in PBS at the required density. For experimental infections, A/J and C57BL/6J mice are inoculated via the tail vein with 200 μl of a suspension containing 3×10^5 C. albicans blastospores in PBS. One group of mice will be pretreated with c-di-GMP (intranasally, i.p., i.m., s.q.). Mice are to be closely monitored for clinical signs of disease, such as lethargy, loss of appetite, hunched back, and ruffled fur.
The levels of TNF-α and IL-6 in tissue extracts are determined using “two-site sandwich” assays with commercially available enzyme-linked immunosorbent assay (ELISA) kits (BD Biosciences). Tissue extracts are prepared by homogenization in lysis buffer (20 mM Tris [pH 7.5], 0.3 M NaCl, 2% sodium deoxycholate, 2% Triton X-100, protease inhibitor cocktail [Roche Diagnostics]). Additional determinations of the levels of 32 cytokines and chemokines are carried out by using cardiac tissue extracts and RayBio mouse cytokine array II membranes (RayBiotech Inc., Norcross, Ga.). […] All values are normalized to the protein content and determined using the Bradford reagent.

S. aureus = details: cited from earlier work
C. neoformans strain 52 = test: Murine model of C. neoformans infection (proposed procedure)
[4] = 200 nmol intramammary 12 h and 6 h prior to challenge, P<0.001

## Nc1nc(=O)c2ncn([C@@H]3OC4COP(=O)(O)O[C@H]5[C@@H](O)[C@H](n6cnc7c(=O)nc(N)[nH]c76)O[C@@H]5COP(=O)(O)OC4C3O)c2[nH]1 (stereo partly drawn) [c-di-GMP, Bis(3′→5′)-cyclic diguanylic acid]
S. aureus Newbould 305; 50 nmol intramammary 12 h and 6 h prior to challenge, P<0.05
  reduction of the mean bacterial CFU in tissues compared to untreated control: 1.5 log
S. aureus Newbould 305; [4]
  reduction in CFUs in tissues: 10,000 fold
  reduction of the mean bacterial CFU in tissues compared to untreated control: 3.8 log
[1]
  stability in human serum: stable
Lung leukocytes; 48 hr post infection, p<0.01
  increase in the number of neutrophils in the lungs of infected mice vs control-pretreated: 3 fold
  total number of lung leukocytes vs control-pretreated: significant increase
Lung leukocytes; i.n. pretreatment 48 and 24 hr prior, lung digests 48 hrs after K. pneumoniae (kp), uninfected 2.7 × 10^7
  Total number lung cells: 4.67 × 10^7*
Lung leukocytes; i.n., data not shown
  trafficking of myeloid or plasmacytoid DC to the lung in response to bacterial challenge: did not alter
Lung leukocytes; lung digests 48 hrs after kp, uninfected 0.33 × 10^5
  αβTcr^+, CD69^+: 3.7 × 10^5*
Lung leukocytes; lung digests 48 hrs after kp, uninfected 0.78 × 10^5
  DX5^+, CD69^+: 5.98 × 10^5**
Lung leukocytes; lung digests 48 hrs after kp, uninfected 0.8 × 10^6
  PMN: 22 × 10^6**
Lung leukocytes; lung digests 48 hrs after kp, uninfected 1.3 × 10^6
  DX5^+ (NK): 3.8 × 10^6
Lung leukocytes; lung digests 48 hrs after kp, uninfected 1.6 × 10^5
  DX5^+, αβγδTcr^+(NK T^+): 6.8 × 10^5*
Lung leukocytes; lung digests 48 hrs after kp, uninfected 2.3 × 10^7
  Mono/Macrophage: 1.9 × 10^7
Lung leukocytes; lung digests 48 hrs after kp, uninfected 2.6 × 10^6
  αβTcr^+: 5.5 × 10^6**
[2]; 24 and 48 hrs post bacterial challenge
  IL-12 p40 levels vs control c-GMP: increased
[2]; 24 hr post Klebsiella challenge, p<0.05, FIG. 17D
  MIP-2 mRNA, increase over infected control (c-GMP): 2 fold
[2]; 24 hrs post K. pneumoniae, p<0.05
  IP-10 and IFN-gamma mRNA levels vs control c-GMP: significantly higher
[2]; i.n. pre-treatment, time 0 (pre-infection)
  type 1 cytokines IL-12 p40, IFN-gamma, and IP-10 in the lungs: induction
[2]; pretreatment, data not shown
  induction of TNF-α in response to i.t. bacterial administration: did not significantly alter
[3]
  clinical outcome: less mortality
S. aureus; intramammary, at time of challenge and 4 h post-inoculation
  colonization of the mouse mammary glands by S. aureus: significantly decreased
S. aureus; previously published studies
  in-vivo dose giving maximal benefit: 200 nmoles/animal
C. neoformans strain 52; C57BL/6 mice
  pathogen burden compared with controls: significantly reduced
  pulmonary eosinophilia: significantly reduced
C. neoformans strain 52; lung, C57BL/6 mice
  IFN production and total numbers of CD4^+/IFN-γ^+ cells: increased
C. neoformans strain 52; oral, intranasal, i.p., i.v., s.q., or i.m. administration
  survival: increase survival

From patent publication US7592326B2, “Method for stimulating the immune, inflammatory or neuroprotective response” (priority 2004, dated 2009)
